# Measured values reported in PubChem BioAssay (NCI).
#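 Dose response: 5 concentrations. Exposure: 48 h. Format: 96-well plates. Endpoint: linear interpolation; highest concentration if not reached. The concentration for full growth arrest is given as TGI.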
# Experiments:
# Assay in all cases: DTP human tumour cell line panel, 48 h
# [1] = system: M14 melanoma
# [2] = system: SF-539 CNS
# [3] = system: SNB-19 CNS
# [4] = system: MDA-MB-231 breast
# [5] = system: HS 578T breast
# [6] = system: UO-31 renal
# [7] = system: NCI-H522 lung
# [8] = system: NCI-H23 lung
# [9] = system: IGROV1 ovarian
# [10] = system: EKVX NSCLC
# [11] = system: HL-60(TB) leukemia
# [12] = system: SK-MEL-28 melanoma
# [13] = system: NCI-H460 lung
# [14] = system: RXF 393 renal
# [15] = system: RPMI-8226 leukemia
# [16] = system: ACHN renal
# [17] = system: LOX IMVI melanoma
# [18] = system: NCI-H226 lung
# [19] = system: MOLT-4 leukemia
# [20] = system: U251 CNS
# [21] = system: KM12 colon
# [22] = system: SK-MEL-2 melanoma
# [23] = system: TK-10 renal
# [24] = system: HT29 colon
# [25] = system: MCF7 breast
# [26] = system: COLO 205 colon
# [27] = system: MALME-3M melanoma
# [28] = system: T-47D breast
# [29] = system: HOP-62 NSCLC
# [30] = system: DU-145 prostate
# [31] = system: SW-620 colon
# [32] = system: SK-MEL-5 melanoma
# [33] = system: MDA-N
# [34] = system: OVCAR-5 ovarian
# [35] = system: SF-268 CNS
# [36] = system: A549 NSCLC
# [37] = system: SN12C renal
# [38] = system: SF-295 CNS
# [39] = system: HCT-15 colon
# [40] = system: OVCAR-4 ovarian
# [41] = system: HCC-2998 colon
# [42] = system: SK-OV-3 ovarian
# [43] = system: SNB-75 CNS
# [44] = system: 786-0 renal
# [45] = system: UACC-257 melanoma
# [46] = system: K-562 leukemia
# [47] = system: OVCAR-8 ovarian
# [48] = system: CCRF-CEM leukemia
# [49] = system: NCI/ADR-RES ovarian
# [50] = system: CAKI-1 renal
# [51] = system: MDA-MB-435
# [52] = system: HOP-92 NSCLC
# [53] = system: HCT-116 colon
# [54] = system: OVCAR-3 ovarian
# [55] = system: A498 renal
# [56] = system: PC-3 prostate
compound,measurement,setting,value
CC(=O)Nc1cc(C(=O)Nc2cc(C(=O)Nc3cc(C(=O)Nc4cc(C(=O)Nc5cc(C(=O)NCCC(=O)NCCCN(C)C)n(C)c5)n(C)c4)n(C)c3)n(C)c2)n(C)c1,TGI,[1],> 100 µM
same,TGI,[2],> 100 µM
same,TGI,[3],> 100 µM
same,TGI,[4],> 100 µM
same,TGI,[5],> 100 µM
same,TGI,[6],> 100 µM
same,TGI,[7],55.6 µM
same,TGI,[8],> 100 µM
same,TGI,[9],> 100 µM
same,TGI,[10],> 100 µM
same,TGI,[11],> 100 µM
same,TGI,[12],> 100 µM
same,TGI,[13],> 100 µM
same,TGI,[14],> 100 µM
same,TGI,[15],> 100 µM
same,TGI,[16],> 100 µM
same,TGI,[17],> 100 µM
same,TGI,[18],> 100 µM
same,TGI,[19],> 100 µM
same,TGI,[20],> 100 µM
same,TGI,[21],> 100 µM
same,TGI,[22],> 100 µM
same,TGI,[23],> 100 µM
same,TGI,[24],> 100 µM
same,TGI,[25],> 100 µM
same,TGI,[26],> 100 µM
same,TGI,[27],> 100 µM
same,TGI,[28],72.2 µM
same,TGI,[29],> 100 µM
same,TGI,[30],> 100 µM
same,TGI,[31],> 100 µM
same,TGI,[32],> 100 µM
same,TGI,[33],> 100 µM
same,TGI,[34],> 100 µM
same,TGI,[35],> 100 µM
same,TGI,[36],> 100 µM
same,TGI,[37],> 100 µM
same,TGI,[38],> 100 µM
same,TGI,[39],> 100 µM
same,TGI,[40],> 100 µM
same,TGI,[41],> 100 µM
same,TGI,[42],> 100 µM
same,TGI,[43],> 100 µM
same,TGI,[44],> 100 µM
same,TGI,[45],> 100 µM
same,TGI,[46],> 100 µM
same,TGI,[47],> 100 µM
same,TGI,[48],73.9 µM
same,TGI,[49],> 100 µM
same,TGI,[50],44.6 µM
same,TGI,[51],> 100 µM
same,TGI,[52],75 µM
same,TGI,[53],> 100 µM
same,TGI,[54],> 100 µM
same,TGI,[55],> 100 µM
same,TGI,[56],> 100 µM
